Assay in all cases: growth of human tumour cells (NCI), 48 h
The test system of test [1] is SK-MEL-28 melanoma.
Test [2] relates to MALME-3M melanoma.
Test [3] relates to HOP-62 NSCLC.
Test [4] concerns EKVX NSCLC.
The subject of test [5] is HS 578T breast.
Test [6] concerns OVCAR-5 ovarian.
In test [7] the test system is HOP-92 NSCLC.
For test [8], the system named is UACC-257 melanoma.
Test [9] concerns UACC-62 melanoma.
Test [10] deals with SN12C renal.
Test [11] relates to KM12 colon.
The subject of test [12] is SF-539 CNS.
Test [13] deals with COLO 205 colon.
For test [14], the system named is SK-OV-3 ovarian.
The test system of test [15] is HL-60(TB) leukemia.
Test [16] relates to CCRF-CEM leukemia.
The test system of test [17] is NCI/ADR-RES ovarian.

Structures are written as SMILES.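 Following 48 hours of exposure in 96-well plates, responses at five concentrations were used to interpolate endpoints linearly. At the TGI there is no net growth.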

As for `Nc1nc(N)c2nnn(C[C@H]3CC[C@@H](CO)C3)c2n1`, the TGI in test [1], in test [2], in test [3], in test [4], in test [5] and in test [6] was more than 100 µM each time. Besides, the TGI was more than 100 µM in test [7]; more than 100 µM in test [8]; more than 100 µM in test [9]; 93.3 µM in [10]; more than 100 µM in test [11]; more than 100 µM in test [12]. Also, the TGI in [13], in test [14], in test [15], in test [16] and in [17] was more than 100 µM throughout.

Turning to `O=C(/C=C\Nc1ccccc1O)C(Cl)(Cl)Cl`, the TGI in test [1] was more than 100 µM; in test [2] it was more than 100 µM; in [3], 52.7 µM; in [4], more than 100 µM; in [5], more than 100 µM; in test [6], more than 100 µM. For the same compound, the TGI in test [7], in test [8], in test [9], in test [10], in test [11] and in test [12] was more than 100 µM throughout. The TGI in [13], in test [14], in [15], in test [16] and in test [17] was more than 100 µM each time.

Turning to `CC(C)(C)OC(=O)NC(Cc1ccc(OCc2ccccc2)cn1)C(=O)N1CCSCC1` (stereo unspecified), the TGI in test [1], in test [2], in test [3], in test [4], in [5] and in test [6] was more than 100 µM in each case. For the same compound, the TGI in test [7] is more than 100 µM; in [8], 82.5 µM; in test [9], more than 100 µM; in test [10], more than 100 µM; in test [11], more than 100 µM; in [12], more than 100 µM. Moreover, the TGI in test [13] was 33.1 µM; in test [14] it was more than 100 µM; in test [15] it was 81.1 µM; in test [16] it was more than 100 µM; in [17], 94.5 µM.

As for `CC(=O)N1N=C(N)CC1=O`, the TGI in test [1], in test [2], in test [3], in [4], in test [5] and in test [6] was more than 100 µM in each case. Besides, the TGI in test [7], in test [8], in test [9], in [10], in test [11] and in test [12] was more than 100 µM each time. Besides, the TGI in test [13], in test [14], in test [15], in test [16] and in test [17] was more than 100 µM in each case.

Consider `Cc1ccc([N+](=O)[O-])cc1S(=O)(=O)Nc1ccc(C2=NNC(c3cccs3)C2)cc1` (stereo unspecified), for which the TGI in test [1] is more than 100 µM; in test [2], more than 100 µM; in [3], 60.2 µM; in [4], 64.2 µM; in [5], more than 100 µM; in [6], more than 100 µM. For the same compound, the TGI in [7] was more than 100 µM; in [8], more than 100 µM; in test [9] it was 34.1 µM; in test [10], 90.6 µM; in [11] it was 76.1 µM; in test [12], more than 100 µM. Moreover, the TGI in test [13] was 35.6 µM; in test [14], 89.4 µM; in test [15], 50.9 µM; in test [16] it was more than 100 µM; in test [17], 94.6 µM.

Turning to `Cc1ccc2cccc3c2c1CC1(C3=O)S(=O)(=O)OCCOS1(=O)=O`, the TGI in test [1], in test [2], in [3], in test [4], in [5] and in test [6] was more than 100 µM each time. For the same compound, the TGI in [7], in [8], in [9], in test [10], in test [11] and in test [12] was more than 100 µM throughout. In addition, the TGI in test [13], in test [14], in [15], in [16] and in test [17] was more than 100 µM each time.

With `CCN(CC)CCSc1nc2c(c(=N)n1-c1ccccc1)c(=S)n(-c1ccccc1)c(=S)n2-c1ccccc1`, the TGI in test [1] was 16.5 µM; in test [2] it was 3.18 µM; in [3], 8.32 µM; in test [4] it was 7.31 µM; in test [5] it was more than 90.9 µM; in test [6], 29 µM. Moreover, the TGI amounted to 2.88 µM in test [7]; 3.15 µM in [8]; 3.16 µM in test [9]; 3.29 µM in test [10]; 12.8 µM in test [11]; 9.57 µM in test [12]. The TGI in [13] came out at 3.51 µM; in test [14] it was 15.5 µM; in [15], 1.29 µM; in test [16], 0.446 µM; in test [17] it was 52.5 µM.

Regarding `N#CC(N=Nc1ccccc1)c1nc2ccccc2o1` (stereo unspecified), the TGI in test [1] was more than 100 µM; in [2], more than 100 µM; in [3], 39 µM; in test [4], more than 100 µM; in [5] it was 66.8 µM; in test [6] it was more than 100 µM. Further, the TGI is 46.7 µM in [7]; more than 100 µM in [8]; more than 100 µM in [9]; more than 100 µM in test [10]; more than 100 µM in test [11]; 28.8 µM in test [12]. Further, the TGI was 68.7 µM in test [13]; 68 µM in test [14]; more than 100 µM in [15]; more than 100 µM in [16]; 64 µM in test [17].

(Values after PubChem BioAssay (NCI).)
